Among the data in patent US20070155764A1, “NOVEL SUBSTITUTED PYRIMIDINYLOXY UREAS USEFUL AS INHIBITORS OF PROTEIN KINASES” (KALYPSYS, INC., priority 2005, published 2007) are IC50 values, retold here.

Common to all, as to type: biochemical
For assay [1], the target named is T1, human B-Raf protein kinase (Homo sapiens, UniProt P15056).
T1 construct: GST (N); purchased Upstate Inc. 14-530 (B-Raf); 14-420 (Mek1)
Description: In vitro B-Raf/Mek1 composite kinase assay. Particulars: recombinant GST-tagged human B-Raf (Δ1-415) with inactive Mek1, 2 μM ATP. The procedure:
In Vitro B-Raf/Mek1 Composite Kinase Assay
2.5 μl of B-Raf kinase buffer (20 mM MOPS [pH 7.2], 25 mM sodium glycerophosphate, 2 mM EGTA [pH 8.0], 1 mM sodium orthovanadate, 1 mM dithiothreitol, 10 mM MgCl2, 0.03% Brij-35, 0.3 mg/ml bovine serum albumin) containing 1 ng of recombinant, N-terminal GST-tagged human B-Raf protein kinase (Δ1-415, Upstate Inc., cat. #14-530) is dispensed to wells of a 1536 multi-well white solid plate. 60 nl of 100× concentration of test compound in DMSO is dispensed to the well by passive pin transfer and incubated for 15 minutes at room temperature (approx. 22° C.). […] The assay plates are sealed and maintained in a humidified environment. After 2 hours, 2.5 μl of PKLight protein kinase assay reagent (Cambrex, cat. #LT07-501) is dispensed. After an additional 5 minute incubation at room temperature, luminescence activity is measured on a Molecular Devices Analyst multi-mode plate reader or other suitable plate reader. Kinase inhibition results in less ATP depletion, and therefore increased luminescence signal. Negative control activity is measured with DMSO lacking any test compound. The positive control is [N-(3-trifluoromethyl-4-chlorophenyl)-N′-(4-(2-methylcarbamoyl-pyridin-4-yl)oxyphenyl)urea], aka Bay 43-9006. Efficacy is measured as a percentage of positive control activity.

The target in the next assay is T2, VEGFR2 kinase (Homo sapiens, UniProt P35968).
T2 construct: purchased Invitrogen Inc PV3660
Put plainly: In vitro VEGFR2 kinase assay. Particulars: ADP Quest assay, poly Glu:Tyr substrate, 60 μM ATP. The procedure:
(§1) In vitro vegfr2 and PDGFRβ Kinase Assays
(§2) 2.5 μl of ADP Quest assay buffer (DiscoverX Inc., cat. #90-0071) containing 20 ng VEGFR2 kinase (Invitrogen Inc, cat. #PV3660) or 25 ng PDGFRβ kinase (Invitrogen Inc., cat. #P3082) is dispensed to wells of a 1536 multi-well, black solid plate. 60 nl of 100× concentration of test compound in DMSO is dispensed to the well by passive pin transfer and incubated for 10 minutes at room temperature (approx. 22° C.). 2.5 μl of ADP Quest assay buffer containing 0.25 μg of poly Glu:Tyr (4:1) substrate peptide (Upstate Inc., cat. #12-440) and 60 μM ATP is then dispensed and the kinase reaction allowed to incubate at 30° C. for 2 hours. The assay plates are sealed and maintained in a humidified environment. After the 2 hour incubation, 2 μl of ADP Quest assay reagent A, followed by 2 μl of assay reagent B, is added. After an additional 30 minute incubation at room temperature, fluorescence intensity is measured on a Molecular Devices Aquest multi-mode plate reader or other suitable plate reader (fluorescence excitation filter: 530/25 [Peak (nm)/FWHM passband (nm)]; dichroic beamsplitter: 561 nm longpass; fluorescence emission filter: 580/10 [Peak (nm)/FWHM passband (nm)]. The assay measures the conversion of a non-fluoresecent molecule to fluorescent resorutin, which correlates with kinase activity. Negative control activity is measured with DMSO lacking any test compound. The positive control is [N-(3-trifluoromethyl-4-chlorophenyl)-N′-(4-(2-methylcarbamoyl-pyridin-4-yl)oxyphenyl)urea], aka Bay 43-9006. Efficacy is measured as a percentage of positive control activity.

The target in the next assay is T3, PDGFRβ kinase (Homo sapiens, UniProt P09619).
T3 construct: purchased Invitrogen Inc. P3082
Description: In vitro PDGFRβ kinase assay. To be noted: ADP Quest assay, poly Glu:Tyr substrate, 60 μM ATP. As for the experimental part:
as §1, §2

Molecules are shown by their SMILES.

T3 sequence (P09619 33-1106): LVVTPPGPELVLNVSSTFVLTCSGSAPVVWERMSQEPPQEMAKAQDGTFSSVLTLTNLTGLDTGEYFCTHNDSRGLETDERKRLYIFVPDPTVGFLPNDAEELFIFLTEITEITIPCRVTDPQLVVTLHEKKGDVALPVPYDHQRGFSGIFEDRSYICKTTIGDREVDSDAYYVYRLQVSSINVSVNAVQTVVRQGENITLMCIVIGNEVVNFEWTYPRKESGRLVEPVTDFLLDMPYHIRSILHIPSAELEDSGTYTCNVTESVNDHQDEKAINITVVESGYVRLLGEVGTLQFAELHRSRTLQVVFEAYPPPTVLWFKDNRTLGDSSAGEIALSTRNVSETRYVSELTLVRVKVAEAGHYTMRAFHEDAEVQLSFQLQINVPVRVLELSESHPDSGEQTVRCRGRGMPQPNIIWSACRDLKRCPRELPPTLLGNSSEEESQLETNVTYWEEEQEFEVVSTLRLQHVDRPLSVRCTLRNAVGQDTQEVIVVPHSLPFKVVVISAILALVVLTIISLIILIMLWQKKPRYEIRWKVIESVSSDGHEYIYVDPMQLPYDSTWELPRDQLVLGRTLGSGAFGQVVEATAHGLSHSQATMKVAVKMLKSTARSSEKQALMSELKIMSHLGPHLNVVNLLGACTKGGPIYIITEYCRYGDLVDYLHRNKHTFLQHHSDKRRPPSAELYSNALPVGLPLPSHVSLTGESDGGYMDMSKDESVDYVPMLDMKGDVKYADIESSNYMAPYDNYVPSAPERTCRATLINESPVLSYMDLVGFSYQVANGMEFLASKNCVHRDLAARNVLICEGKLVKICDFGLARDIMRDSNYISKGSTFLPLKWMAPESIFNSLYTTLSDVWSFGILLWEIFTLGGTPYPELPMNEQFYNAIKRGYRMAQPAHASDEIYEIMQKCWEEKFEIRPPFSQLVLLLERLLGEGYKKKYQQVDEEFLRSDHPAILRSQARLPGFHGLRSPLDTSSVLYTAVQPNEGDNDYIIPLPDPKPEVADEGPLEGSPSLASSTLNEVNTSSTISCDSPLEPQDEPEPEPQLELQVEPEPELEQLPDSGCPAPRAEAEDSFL
T1 sequence (P15056 416-766): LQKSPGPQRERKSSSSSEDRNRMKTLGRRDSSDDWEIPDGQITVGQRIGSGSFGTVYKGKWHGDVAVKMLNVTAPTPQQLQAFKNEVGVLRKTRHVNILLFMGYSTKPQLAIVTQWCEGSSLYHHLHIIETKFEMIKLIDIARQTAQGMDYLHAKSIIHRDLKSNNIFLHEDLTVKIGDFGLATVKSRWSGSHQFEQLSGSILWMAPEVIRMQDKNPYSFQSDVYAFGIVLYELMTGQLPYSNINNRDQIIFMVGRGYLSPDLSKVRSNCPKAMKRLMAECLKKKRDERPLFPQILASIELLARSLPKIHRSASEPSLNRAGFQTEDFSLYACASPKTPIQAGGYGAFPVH
T2 sequence (P35968 20-1356): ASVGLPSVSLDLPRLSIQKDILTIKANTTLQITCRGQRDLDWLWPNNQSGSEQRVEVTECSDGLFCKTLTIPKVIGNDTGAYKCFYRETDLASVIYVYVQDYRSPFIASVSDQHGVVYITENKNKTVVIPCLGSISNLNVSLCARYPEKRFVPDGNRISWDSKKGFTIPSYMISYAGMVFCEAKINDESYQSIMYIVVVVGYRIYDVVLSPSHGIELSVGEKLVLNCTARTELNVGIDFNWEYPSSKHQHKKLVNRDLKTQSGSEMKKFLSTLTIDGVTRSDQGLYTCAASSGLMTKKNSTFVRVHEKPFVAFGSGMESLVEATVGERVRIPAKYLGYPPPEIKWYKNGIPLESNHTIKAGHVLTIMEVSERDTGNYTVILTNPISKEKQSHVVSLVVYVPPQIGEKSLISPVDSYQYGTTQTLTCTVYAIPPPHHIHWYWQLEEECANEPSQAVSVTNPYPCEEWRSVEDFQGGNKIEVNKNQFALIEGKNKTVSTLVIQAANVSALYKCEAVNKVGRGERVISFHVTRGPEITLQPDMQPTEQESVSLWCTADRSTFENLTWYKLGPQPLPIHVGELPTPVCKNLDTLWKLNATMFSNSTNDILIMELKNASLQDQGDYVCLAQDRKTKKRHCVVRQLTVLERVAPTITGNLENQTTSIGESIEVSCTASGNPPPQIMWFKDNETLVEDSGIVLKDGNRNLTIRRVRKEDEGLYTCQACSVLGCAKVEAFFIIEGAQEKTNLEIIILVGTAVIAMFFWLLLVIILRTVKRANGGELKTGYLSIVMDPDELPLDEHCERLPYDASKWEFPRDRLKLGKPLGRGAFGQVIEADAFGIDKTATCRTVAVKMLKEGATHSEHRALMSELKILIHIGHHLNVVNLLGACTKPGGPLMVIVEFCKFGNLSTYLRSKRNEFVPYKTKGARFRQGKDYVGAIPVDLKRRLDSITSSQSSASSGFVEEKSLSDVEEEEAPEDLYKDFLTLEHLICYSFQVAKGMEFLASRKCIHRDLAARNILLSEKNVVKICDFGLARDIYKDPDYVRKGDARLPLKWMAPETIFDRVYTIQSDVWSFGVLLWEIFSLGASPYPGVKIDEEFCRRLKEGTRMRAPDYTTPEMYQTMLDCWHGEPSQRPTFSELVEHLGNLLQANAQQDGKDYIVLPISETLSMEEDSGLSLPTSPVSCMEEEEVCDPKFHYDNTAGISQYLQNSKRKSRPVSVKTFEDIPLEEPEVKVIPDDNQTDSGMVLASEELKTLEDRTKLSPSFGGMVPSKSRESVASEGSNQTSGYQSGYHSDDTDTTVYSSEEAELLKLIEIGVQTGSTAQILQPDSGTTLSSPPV

Take `O=C(Nc1ccc(Oc2ccnc(-c3nnco3)c2)cc1)Nc1cc(C(F)(F)F)c(Cl)cc1OCCN1CCCC1` [Example 41, 1-(4-(2-(1,3,4-Oxadiazol-2-yl)pyridin-4-yloxy)phenyl)-3-(4-chloro-2-(2-(pyrrolidin-1-yl)ethoxy)-5-(trifluoromethyl)phenyl)urea]: the IC50 (in assay [1]; against VEGFR2 kinase; against PDGFRβ kinase) was ≤ 10 µM throughout.

As for `O=C(Nc1cccc(Oc2cc(-c3ccno3)ncn2)c1)Nc1ccc(Cl)c(C(F)(F)F)c1` [Example 42, 1-(4-chloro-3-(trifluoromethyl)phenyl)-3-(3-(6-(isoxazol-5-yl)pyrimidin-4-yloxy)phenyl)urea], the IC50 (in assay [1]; on VEGFR2 kinase; against PDGFRβ kinase) was ≤ 10 µM each time.

With `O=C(Nc1ccc(Oc2ccnc(-c3nnco3)c2)cc1)Nc1cc(CN2CCOCC2)cc(C(F)(F)F)c1` [Example 43, 1-(4-(2-(1,3,4-Oxadiazol-2-yl)pyridin-4-yloxy)phenyl)-3-(3-(morpholinomethyl)-5-(trifluoromethyl)phenyl)urea], the IC50 (in assay [1]; against VEGFR2 kinase; against PDGFRβ kinase) was ≤ 10 µM each time.

Regarding `CN1CCC(Oc2cc(Cl)c(C(F)(F)F)cc2NC(=O)Nc2ccc(Oc3ccnc(-c4nnco4)c3)cc2)CC1` [Example 44], the IC50 (in assay [1]; against VEGFR2 kinase; against PDGFRβ kinase) was ≤ 10 µM each time.

As for `O=C(Nc1ccc(Cl)c(C(F)(F)F)c1)Nc1cc(Oc2cc(-c3nnco3)ncn2)c(F)cc1F` [Example 45, 1-(5-(6-(1,3,4-Oxadiazol-2-yl)pyrimidin-4-yloxy)-2,4-difluorophenyl)-3-(4-chloro-3-(trifluoromethyl)phenyl)urea], the IC50 (in assay [1]; on VEGFR2 kinase; on PDGFRβ kinase) was ≤ 10 µM each time.

In the case of `Cc1nc(-c2cc(Oc3cccc(NC(=O)Nc4ccc(Cl)c(C(F)(F)F)c4)c3)ncn2)cs1` [Example 46, 1-(4-Chloro-3-(trifluoromethyl)phenyl)-3-(3-(6-(2-methylthiazol-4-yl)pyrimidin-4-yloxy)phenyl)urea], the IC50 (in assay [1]; on VEGFR2 kinase; at PDGFRβ kinase) was ≤ 10 µM each time.

For `CN1CCC(OCc2cc(NC(=O)Nc3ccc(Oc4ccnc(-c5nnco5)c4)cc3)cc(C(F)(F)F)c2)CC1` [Example 47, 1-(4-(2-(1,3,4-Oxadiazol-2-yl)pyridin-4-yloxy)phenyl)-3-(3-((1-methylpiperidin-4-yloxy)methyl)-5-(trifluoromethyl)phenyl)urea], the IC50 (in assay [1]; against VEGFR2 kinase; against PDGFRβ kinase) was ≤ 10 µM throughout.

For `O=C(Nc1cccc(Oc2cc(-c3nnco3)ncn2)c1)Nc1ccc(C(F)(F)F)c(Cl)c1` [Example 48, 1-(3-(6-(1,3,4-Oxadiazol-2-yl)pyrimidin-4-yloxy)phenyl)-3-(3-chloro-4-(trifluoromethyl)phenyl)urea], the IC50 (in assay [1]; on VEGFR2 kinase; on PDGFRβ kinase) was ≤ 10 µM in each case.

Consider `O=C(Nc1cccc(Oc2cc(-c3cnn(Cc4ccccc4)c3)ncn2)c1)Nc1ccc(Cl)c(C(F)(F)F)c1` [Example 49, 1-(3-(6-(1-Benzyl-1H-pyrazol-4-yl)pyrimidin-4-yloxy)phenyl)-3-(4-chloro-3-(trifluoromethyl)phenyl)urea], for which the IC50 (in general, the midpoint of a concentration-inhibition curve) in assay [1] is ≤ 10 µM; on VEGFR2 kinase, > 10 µM; against PDGFRβ kinase it was > 10 µM.

As for `CN(C)CCNc1nc(-c2cc(Oc3cccc(NC(=O)Nc4ccc(Cl)c(C(F)(F)F)c4)c3)ncn2)cs1` [Example 50, 1-(4-Chloro-3-(trifluoromethyl)phenyl)-3-(3-(6-(2-(2-(dimethylamino)ethylamino)thiazol-4-yl)pyrimidin-4-yloxy)phenyl)urea], the IC50 (in assay [1]; against VEGFR2 kinase; against PDGFRβ kinase) was ≤ 10 µM each time.

For `Cc1cn(-c2cc(NC(=O)Nc3ccc(Oc4cc(-c5cnn(C)c5)ncn4)cc3)cc(C(F)(F)F)c2)cn1` [Example 51, 1-(3-(4-Methyl-1H-imidazol-1-yl)-5-(trifluoromethyl)phenyl)-3-(4-(6-(1-methyl-1H-pyrazol-4-yl)pyrimidin-4-yloxy)phenyl)urea], the IC50 (in assay [1]; on VEGFR2 kinase; on PDGFRβ kinase) was ≤ 10 µM each time.

On to `COCCOc1ccc(NC(=O)Nc2ccc(Oc3cc(-c4cnn(C)c4)ncn3)cc2)cc1C(F)(F)F` [Example 52, 1-(4-(2-Methoxyethoxy)-3-(trifluoromethyl)phenyl)-3-(4-(6-(1-methyl-1H-pyrazol-4-yl)pyrimidin-4-yloxy)phenyl)urea], for which the IC50 (in assay [1]; against VEGFR2 kinase; on PDGFRβ kinase) was ≤ 10 µM throughout.

For the compound `COCCOc1ccc(NC(=O)Nc2ccc(Oc3cc(-c4nnco4)ncn3)cc2)cc1C(F)(F)F` [Example 53, 1-(4-(6-(1,3,4-Oxadiazol-2-yl)pyrimidin-4-yloxy)phenyl)-3-(4-(2-methoxyethoxy)-3-(trifluoromethyl)phenyl)urea], the IC50 in assay [1] is > 10 µM; on VEGFR2 kinase, ≤ 10 µM; on PDGFRβ kinase it was ≤ 10 µM.

Turning to `COC(=O)Cn1cc(-c2cc(Oc3cccc(NC(=O)Nc4ccc(Cl)c(C(F)(F)F)c4)c3)ncn2)cn1` [Example 54, Methyl 2-(4-(6-(3-(3-(4-chloro-3-(trifluoromethyl)phenyl)ureido)phenoxy)pyrimidin-4-yl)-1H-pyrazol-1-yl)acetate], the IC50 (in assay [1]; against VEGFR2 kinase; at PDGFRβ kinase) was ≤ 10 µM each time.

Turning to `CNC(=O)Cn1cc(-c2cc(Oc3cccc(NC(=O)Nc4ccc(Cl)c(C(F)(F)F)c4)c3)ncn2)cn1` [Example 56, 2-(4-(6-(3-(3-(4-Chloro-3-(trifluoromethyl)phenyl)ureido)phenoxy)pyrimidin-4-yl)-1H-pyrazol-1-yl)-N-methylacetamide], the IC50 (in assay [1]; against VEGFR2 kinase; on PDGFRβ kinase) was ≤ 10 µM each time.

`Cn1cc(-c2cc(Oc3cc(NC(=O)Nc4ccc(Cl)c(C(F)(F)F)c4)c(F)cc3F)ncn2)cn1` [Example 57, 1-(4-Chloro-3-(trifluoromethyl)phenyl)-3-(2,4-difluoro-5-(6-(1-methyl-1H-pyrazol-4-yl)pyrimidin-4-yloxy)phenyl)urea]: the IC50 (in assay [1]; at VEGFR2 kinase; at PDGFRβ kinase) was ≤ 10 µM in each case.

In the case of `COC(=O)Cn1ccc(-c2cc(Oc3cccc(NC(=O)Nc4ccc(Cl)c(C(F)(F)F)c4)c3)ncn2)n1` [Example 58, Methyl 2-(3-(6-(3-(3-(4-chloro-3-(trifluoromethyl)phenyl)ureido)phenoxy)pyrimidin-4-yl)-1H-pyrazol-1-yl)acetate], the IC50 (in assay [1]; against VEGFR2 kinase; on PDGFRβ kinase) was ≤ 10 µM each time.

With `NC(=O)Cn1ccc(-c2cc(Oc3cccc(NC(=O)Nc4ccc(Cl)c(C(F)(F)F)c4)c3)ncn2)n1` [Example 59, 2-(3-(6-(3-(3-(4-Chloro-3-(trifluoromethyl)phenyl)ureido)phenoxy)pyrimidin-4-yl)-1H-pyrazol-1-yl)acetamide], the IC50 (in assay [1]; on VEGFR2 kinase; at PDGFRβ kinase) was ≤ 10 µM each time.
